Data: ChEMBL document CHEMBL1909046, “DrugMatrix in vitro pharmacology data”

Assays:
[1] = DRUGMATRIX: Phorbol Ester radioligand binding (ligand: [3H] PDBu); format: cell membranes, Mus musculus, ICR, Brain, Membrane; conditions: Not Active = under 50% inhibition at 10 µM
[2] = biological target: T1, Muscarinic acetylcholine receptor M4 (Homo sapiens, UniProt P08173); format: cell membranes, CHO-K1, Membrane; conditions: cho-k1; note: in other assays of this panel Not Active means under 50% inhibition at 10 µM
T1 sequence (P08173 whole entry): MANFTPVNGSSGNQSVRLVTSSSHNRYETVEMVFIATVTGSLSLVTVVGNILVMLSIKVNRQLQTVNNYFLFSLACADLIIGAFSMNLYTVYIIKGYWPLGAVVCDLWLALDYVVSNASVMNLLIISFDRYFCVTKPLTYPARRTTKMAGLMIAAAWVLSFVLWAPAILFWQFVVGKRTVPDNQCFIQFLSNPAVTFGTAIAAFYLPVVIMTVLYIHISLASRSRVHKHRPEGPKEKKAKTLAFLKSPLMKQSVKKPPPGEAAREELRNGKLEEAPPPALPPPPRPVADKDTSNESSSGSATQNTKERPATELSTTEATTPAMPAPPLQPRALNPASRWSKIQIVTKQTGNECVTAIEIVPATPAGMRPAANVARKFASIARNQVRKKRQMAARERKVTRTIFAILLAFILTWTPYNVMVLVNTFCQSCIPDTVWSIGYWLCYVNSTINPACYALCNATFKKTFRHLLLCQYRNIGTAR

[3] = DRUGMATRIX: ATPase, Na+/K+ enzyme inhibition (substrate: ATP); format: tissue-based, Sus scrofa, Heart; conditions: Not Active = under 50% inhibition at 10 µM
[4] = biological target: Vascular endothelial growth factor receptor 1 (Homo sapiens, UniProt P17948); format: cell-based; conditions: huvec; note: in other assays of this panel Not Active means under 50% inhibition at 10 µM
[5] = biological target: T2, Substance-K receptor (Homo sapiens, UniProt P21452); format: cell membranes, CHO, Membrane; conditions: cho; note: in other assays of this panel Not Active means under 50% inhibition at 10 µM
T2 sequence (P21452 whole entry): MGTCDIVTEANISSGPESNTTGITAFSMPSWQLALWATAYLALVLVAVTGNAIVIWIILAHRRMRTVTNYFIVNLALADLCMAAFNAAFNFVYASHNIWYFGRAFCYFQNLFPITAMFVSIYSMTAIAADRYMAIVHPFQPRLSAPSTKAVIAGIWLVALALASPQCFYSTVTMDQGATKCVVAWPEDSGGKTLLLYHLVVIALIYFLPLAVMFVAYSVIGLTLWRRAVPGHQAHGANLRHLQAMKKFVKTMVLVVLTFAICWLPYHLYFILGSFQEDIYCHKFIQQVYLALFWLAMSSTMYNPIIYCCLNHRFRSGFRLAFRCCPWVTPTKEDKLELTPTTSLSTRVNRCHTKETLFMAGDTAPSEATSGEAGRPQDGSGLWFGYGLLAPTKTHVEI

[6] = DRUGMATRIX: Purinergic P2X radioligand binding (ligand: [3H] alpha, beta-Methylene-ATP); format: cell membranes, Oryctolagus cuniculus, New Zealand albino, Urinary bladder, Membrane; conditions: Not Active = under 50% inhibition at 10 µM
[7] = biological target: T3, Alpha-2C adrenergic receptor (Homo sapiens, UniProt P18825); experiment: DRUGMATRIX: Adrenergic Alpha-2C radioligand binding (ligand: [3H] MK-912); format: cell membranes, Sf9, Membrane; conditions: sf9
T3 sequence (P18825 whole entry): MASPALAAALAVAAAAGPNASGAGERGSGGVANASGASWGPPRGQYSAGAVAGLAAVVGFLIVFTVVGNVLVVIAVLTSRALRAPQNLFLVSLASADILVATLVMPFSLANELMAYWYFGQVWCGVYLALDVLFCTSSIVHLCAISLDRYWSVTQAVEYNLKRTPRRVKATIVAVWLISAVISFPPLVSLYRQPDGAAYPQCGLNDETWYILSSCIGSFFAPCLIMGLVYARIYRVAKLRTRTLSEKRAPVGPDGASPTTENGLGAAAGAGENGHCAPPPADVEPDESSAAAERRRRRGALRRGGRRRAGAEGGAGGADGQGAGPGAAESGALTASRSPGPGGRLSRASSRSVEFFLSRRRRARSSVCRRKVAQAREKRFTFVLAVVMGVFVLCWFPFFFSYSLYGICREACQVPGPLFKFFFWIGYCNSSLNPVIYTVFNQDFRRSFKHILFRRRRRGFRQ

Sequence of Vascular endothelial growth factor receptor 1 (P17948 whole entry): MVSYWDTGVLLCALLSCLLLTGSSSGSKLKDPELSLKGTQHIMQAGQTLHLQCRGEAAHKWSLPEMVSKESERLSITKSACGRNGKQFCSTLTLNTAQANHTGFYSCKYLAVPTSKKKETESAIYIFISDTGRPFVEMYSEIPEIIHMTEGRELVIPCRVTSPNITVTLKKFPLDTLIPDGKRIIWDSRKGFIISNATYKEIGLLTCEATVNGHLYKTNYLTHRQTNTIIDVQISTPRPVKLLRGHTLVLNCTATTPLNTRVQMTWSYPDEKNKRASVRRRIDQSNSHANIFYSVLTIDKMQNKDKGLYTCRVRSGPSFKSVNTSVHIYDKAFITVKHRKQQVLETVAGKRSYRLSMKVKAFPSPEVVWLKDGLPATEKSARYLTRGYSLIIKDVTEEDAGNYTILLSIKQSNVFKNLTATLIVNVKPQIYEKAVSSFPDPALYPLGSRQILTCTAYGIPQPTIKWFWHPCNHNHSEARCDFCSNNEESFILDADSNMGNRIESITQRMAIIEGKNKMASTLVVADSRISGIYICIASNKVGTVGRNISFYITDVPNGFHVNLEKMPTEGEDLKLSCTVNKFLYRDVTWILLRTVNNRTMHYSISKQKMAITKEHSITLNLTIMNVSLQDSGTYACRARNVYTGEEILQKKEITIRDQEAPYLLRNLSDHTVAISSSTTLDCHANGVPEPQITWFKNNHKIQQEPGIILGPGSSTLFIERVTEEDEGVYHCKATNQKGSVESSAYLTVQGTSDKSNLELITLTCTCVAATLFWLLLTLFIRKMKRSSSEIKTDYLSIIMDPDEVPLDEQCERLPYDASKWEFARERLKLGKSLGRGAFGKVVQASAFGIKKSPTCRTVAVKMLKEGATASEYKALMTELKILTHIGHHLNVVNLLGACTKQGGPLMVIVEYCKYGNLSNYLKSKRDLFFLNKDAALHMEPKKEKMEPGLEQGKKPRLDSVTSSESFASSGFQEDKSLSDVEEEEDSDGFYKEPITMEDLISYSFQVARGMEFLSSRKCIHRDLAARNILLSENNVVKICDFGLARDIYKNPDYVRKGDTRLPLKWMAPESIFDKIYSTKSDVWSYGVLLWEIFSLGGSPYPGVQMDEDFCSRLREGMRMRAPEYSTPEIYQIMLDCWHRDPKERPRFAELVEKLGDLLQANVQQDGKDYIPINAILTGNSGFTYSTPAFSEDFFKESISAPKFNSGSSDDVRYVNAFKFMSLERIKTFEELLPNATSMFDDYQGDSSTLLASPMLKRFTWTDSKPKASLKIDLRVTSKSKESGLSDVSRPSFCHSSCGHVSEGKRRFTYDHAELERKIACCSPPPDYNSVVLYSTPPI

COC(=O)C[C@](O)(CCC(C)(C)O)C(=O)O[C@@H]1C(OC)=C[C@]23CCCN2CCc2cc4c(cc2[C@H]13)OCO4 [HARRINGTONINE]
Not Active: IC50 [1] | Ki [1] | IC50 [2] | IC50 [3] | Ki [3] | IC50 [4] | IC50 [5] | IC50 [6] | Ki [6] | IC50 [7]

COc1cc(NC(C)CCCN)c2ncccc2c1 (centres undefined) [PRIMAQUINE]
Not Active: IC50 [1] | Ki [1] | IC50 [2] | IC50 [3] | Ki [3] | IC50 [4] | IC50 [5] | IC50 [6] | Ki [6] | IC50 [7]

OC[C@H]1O[C@@H]2O[C@H]3[C@H](O)[C@@H](O)[C@@H](O[C@H]4[C@H](O)[C@@H](O)[C@@H](O[C@H]5[C@H](O)[C@@H](O)[C@@H](O[C@H]6[C@H](O)[C@@H](O)[C@@H](O[C@H]7[C@H](O)[C@@H](O)[C@@H](O[C@H]8[C@H](O)[C@@H](O)[C@@H](O[C@H]1[C@H](O)[C@H]2O)O[C@@H]8CO)O[C@@H]7CO)O[C@@H]6CO)O[C@@H]5CO)O[C@@H]4CO)O[C@@H]3CO [BETADEX]
Not Active: IC50 [1] | Ki [1] | IC50 [2] | IC50 [3] | Ki [3] | IC50 [4] | IC50 [5] | IC50 [6] | Ki [6] | IC50 [7]

COc1cc([C@@H]2c3cc4c(cc3[C@H](O)[C@H]3COC(=O)[C@H]23)OCO4)cc(OC)c1OC [PODOFILOX]
Not Active: IC50 [1] | Ki [1] | IC50 [2] | IC50 [3] | Ki [3] | IC50 [4] | IC50 [5] | IC50 [6] | Ki [6] | IC50 [7]

C[C@H]1C[C@H]2[C@@H]3CCC4=CC(=O)C=C[C@]4(C)[C@@]3(F)[C@@H](O)C[C@]2(C)[C@@]1(O)C(=O)CO [BETAMETHASONE]
Not Active: IC50 [1] | Ki [1] | IC50 [2] | IC50 [3] | Ki [3] | IC50 [4] | IC50 [5] | IC50 [6] | Ki [6] | IC50 [7]

CARBOXYMETHYLCELLULOSE
Not Active: IC50 [1] | Ki [1] | IC50 [2] | Ki [2] | IC50 [3] | Ki [3] | IC50 [4] | Ki [4] | IC50 [5] | Ki [5] | IC50 [6] | Ki [6] | IC50 [7] | Ki [7]

NC(=O)CN1CCCC1=O
Not Active: IC50 [1] | Ki [1] | IC50 [2] | IC50 [3] | Ki [3] | IC50 [4] | IC50 [5] | IC50 [6] | Ki [6] | IC50 [7]

CC(N)Cc1c[nH]c2ccc(OCc3cccs3)cc12 (centres undefined) [BW-723C86]
Not Active: IC50 [1] | Ki [1] | IC50 [2] | IC50 [3] | Ki [3] | IC50 [4] | IC50 [5] | IC50 [6] | Ki [6] | IC50 [7]

c1ccc2c(c1)Nc1ccccc1S2 [PHENOTHIAZINE]
Not Active: IC50 [1] | Ki [1] | IC50 [2] | IC50 [3] | Ki [3] | IC50 [4] | IC50 [5] | IC50 [6] | Ki [6] | IC50 [7]

ClC1=C(Cl)[C@]2(Cl)[C@@H]3[C@@H]4C[C@@H]([C@H]5O[C@@H]45)[C@@H]3[C@@]1(Cl)C2(Cl)Cl [DIELDRIN]
Not Active: IC50 [1] | Ki [1] | IC50 [2] | IC50 [3] | Ki [3] | IC50 [4] | IC50 [5] | IC50 [6] | Ki [6] | IC50 [7]

CC(C)(c1ccc(O)cc1)c1ccc(O)cc1 [BISPHENOL A]
Not Active: IC50 [1] | Ki [1] | IC50 [2] | IC50 [3] | Ki [3] | IC50 [4] | IC50 [5] | IC50 [6] | Ki [6] | IC50 [7]

CN(Cc1cc(Br)cc(Br)c1N)C1CCCCC1 [BROMHEXINE]
Not Active: IC50 [1] | Ki [1] | IC50 [2] | IC50 [3] | Ki [3] | IC50 [4] | IC50 [5] | IC50 [6] | Ki [6] | IC50 [7]

c1ccc(Cn2ccnc2)cc1
Not Active: IC50 [1] | Ki [1] | IC50 [2] | IC50 [3] | Ki [3] | IC50 [4] | IC50 [5] | IC50 [6] | Ki [6] | IC50 [7]

CCO [ALCOHOL]
Not Active: IC50 [1] | Ki [1] | IC50 [2] | IC50 [3] | Ki [3] | IC50 [4] | IC50 [5] | IC50 [6] | Ki [6] | IC50 [7]
